Laboratory results taken from patent EP0678293A2, “Composition containing pyridoxine ester, process for the preparation and use thereof” (F. HOFFMANN-LA ROCHE AG, priority 1994, dated 1995).
Blank lines part the entries; values can stand above or below the compound they belong to.

Experiments:
[1] = cited from earlier work; for Löslichkeit in Fetten: Kummerow, J.Am Oil Chem. Soc. 33 1956, 116
[2] = direct use in ointments, creams and other skin preparations; no test described; cited from earlier work
[3] = Solubility of pyridoxine tripropionate in vegetable oil / lipophilic phases
Excerpt: 50 Gew% Pyridoxintripropionat werden vorgelegt und in 50 Gew% Pflanzenöl unter starkem Rühren gelöst.

Compound: Cc1ncc(CO)c(CO)c1O.Cl [Pyridoxin-hydrochlorid]
Löslichkeit in unpolaren Flüssigkeiten ([1]; in unpolaren Flüssigkeiten, background statement): praktisch unlöslich

Compound: CC(=O)OCc1cnc(C)c(OC(C)=O)c1COC(C)=O [Pyridoxintriacetat]
Löslichkeit in Fetten ([1]; Sakuragi): beinahe unlöslich

Compound: CCCCCCCCCCCCCCCC(=O)OCc1cnc(C)c(OC(=O)CCCCCCCCCCCCCCC)c1COC(=O)CCCCCCCCCCCCCCC [Pyridoxintripalmitat]
Löslichkeit in Olivenöl ([1]; bei 3 °C in Olivenöl, Sakuragi, Kummerow 1956): 0,1%

Lösung in Pflanzenöl ([3]; 50 Gew% Pyridoxintripropionat in 50 Gew% Pflanzenöl, dissolved with vigorous stirring): homogene Lösung
löslich in Pflanzenöl ([3]; in Pflanzenöl): ≤ 50 Gew.%
Compound: CCC(=O)OCc1cnc(C)c(OC(=O)CC)c1COC(=O)CC [Pyridoxintripropionat]
Löslichkeit in Fetten ([1]; Sakuragi): beinahe unlöslich
Vitamin B₆ Wirksamkeit [2]: volle

Compound: Pyridoxinoctanoat
Löslichkeit in Pflanzenölen ([1]; in Pflanzenölen, Sakuragi, Kummerow 1956): ≤ 1%
